The text below walks through data of US20180235904A1, “CANNABIDIOL COMPOSITIONS INCLUDING MIXTURES AND USES THEREOF” (EARTH SCIENCE TECH, INC., priority 2014, published 2018).

This test has as its system RAW264.7 macrophages. Description: Stimulation of macrophages, TNFα production (ELISA). It is filed as cell-based, mouse. Particulars: 24 h. On the procedure:
RAW264.7, a mouse macrophage-like cell line, was used. The cells were cultured in DMEM, supplemented with 10% fetal calf serum (FCS), in 5% CO2, 95% air, at 37° C. in an humidified incubator.
The stimulation of macrophages was assessed by TNFα production, using a mouse TNFα ELISA kit.
To study the effects of hemp oil on macrophages, cells were seeded in a 24-well plate (2×10^5 cell/well) in 1-ml medium in each well for 12 h, and then incubated with hemp oil solution of different CBD concentrations (0-10 μM) for 24 h. Cell supernatant was collected for ELISA analysis.
After the macrophages were incubated with hemp oil of different CBD concentrations (0, 1, 2.5, 5, 10 μM), the TNFα production by the cells was detected.

As for `C=C(C)[C@@H]1CCC(C)=C[C@H]1c1c(O)cc(CCCCC)cc1O` [CBD, Cannabidiol], where the note is “CBD concentration of 10 μM”, the TNFα production entry was “induced TNFα production at a significantly higher level”. Also, under “CBD concentration range of 0 to 5 μM”, the “impact on macrophages (TNFα production)” value was “not significant”.
